The text below walks through data of patent US12312370B2, “Immunoproteasome inhibitors” (Principia Biopharma Inc., priority 2017, dated 2025).

Read-outs that look alike come from different tables or passages of the source.

Assay [1] addresses immunoproteasome LPM2/β1i subunit (Homo sapiens, UniProt P28065). The assay is described as follows: Caliper-based proteasome enzymatic activity assay, LMP2. Type of assay: biochemical. As to conditions: human recombinant immunoproteasome 0.3 nM, FAM-labeled peptide substrate 1 μM, rt 2 h.
The target in assay [2] is immunoproteasome LMP7/B5i subunit (Homo sapiens, UniProt P28062). The assay is described as follows: Caliper-based proteasome enzymatic activity assay, LMP7. It is filed as biochemical. As to conditions: human recombinant immunoproteasome 0.3 nM, FAM-labeled peptide substrate 1 μM, rt 3 h; read-out: LMP7 subunit IC50.
For assay [3], the target named is T1, PBMC/LMP7 (Homo sapiens, UniProt P28062). The assay is described as follows: Proteasome-Glo inhibition of proteasome activity in cells, PBMC/LMP7. It is filed as cell-based. As to conditions: 2 h incubation at 37° C. Here is the method: (§1) The cell-based effects of a compound described herein on the immunoproteasome were determined by measuring inhibition of proteasome activity in cells using the Proteasome-Glo™ Cell-Based Reagent (Promega, Madison WI). The Proteasome-Glo™ assay contains a specific luminogenic proteasome substrate in a buffer optimized for cell permeabilization, proteasome activity, and luciferase activity. For the chymotrypsin-like activity (LMP7 and β5c), the peptide substrate is Suc-LLVY-aminoluciferin (Succinyl-leucine-leucine-valine-tyrosine-aminoluciferin). Cleavage of the substrate by proteasome results in luminescent signal which is proportional to the proteasome activity. The cell line THP-1 (a monocytic leukemia cell line enriched in immunoproteasome), the cell line HT-29 (a colorectal adenocarcinoma cell line enriched in constitutive proteasome), and primary human peripheral blood mononuclear cells (PBMC) were used to assess proteasome activity. Cells were seeded in a 96-well plate at 10,000 cells per well in RPMI 1640 high glucose medium with 10% fetal bovine scrum (FBS). Compound dilutions were added to cells starting at a concentration of 5 uM and decreasing in tripling dilutions. The final DMSO concentration was 1%. The concentration range was adjusted as needed for compounds of different potencies. The cells treated with compounds were incubated for 2 h at 37° C. in 5% CO2. At the end of the 2 hour incubation period, cells were transferred to white 384 well assay plates. 20 uL of Proteasome-Glo™ Reagent was added to each well and incubated for 10 minutes at rt. The plate was read in the Analyst HT instrument (Molecular Devices, Sunnyvale, CA) using luminescence mode. The percent inhibition of activity was plotted as a function of log compound concentration. The IC50 was then calculated for each compound using Prism software from GraphPad Software Inc. (San Diego, CA).

The target of assay [4] is constitutive proteasome β5c unit (Homo sapiens, UniProt P28074). The assay can be described thus: Caliper-based proteasome enzymatic activity assay, β5c. It is filed as biochemical. As to conditions: human recombinant constitutive proteasome 0.3 nM, FAM-labeled peptide substrate 1 μM, rt 3 h; read-out: β5c subunit IC50.
Assay [5] concerns the target T2, HT29/B5c (Homo sapiens, UniProt P28074). The assay is described as follows: Proteasome-Glo inhibition of proteasome activity in cells, HT29/B5c. Type of assay: cell-based. As to conditions: HT-29 cells, 2 h incubation at 37° C. Here is the method: as §1
The test system of assay [6] is Th1/17 differentiation. As to conditions: human; cited from earlier work.
Assay [7] deals with Th1/17 differentiation. As to conditions: mouse; cited from earlier work.
The test system of assay [8] is Hashimoto's thyroiditis model. As to conditions: autoantibody-driven Hashimoto's thyroiditis model; cited from earlier work.
For assay [9], the system named is murine DSS-induced colitis model. As to conditions: cited from earlier work.
Assay [10] deals with murine collagen-induced arthritis. As to conditions: cited from earlier work.
For the next assay, the system named is MRL/lpr lupus model. As to conditions: cited from earlier work.
In assay [11] the target is T3, PBMC/LMP2 (Homo sapiens, UniProt P28065). The assay is described as follows: Proteasome-Glo inhibition of proteasome activity in cells, PBMC/LMP2. It is filed as cell-based. As to conditions: 2 h incubation at 37° C.
In assay [12] the target is T3, PBMC/LMP2. The assay is described as follows: Durability of binding in cells, wash-out assay, PBMC/LMP2. As to conditions: 2 h incubation, inhibitor washout. It is filed as cell-based. Here is the method:
(§2) The durability of binding of proteasome inhibitors was assessed in cells using wash-out assays and the Proteasome-Glo™ Reagent kit. THP-1 cells. HT-29 cells, or PBMC were incubated with an 8-fold dilution series of inhibitor for 2 h. Following 2 h of incubation, cells were washed using 3 occasions of centrifugation followed by resuspension in culture medium. Following inhibitor washout, cells were returned to culture for either 30 minutes, 4 h, or 18 h. Cells were then transferred to white 384 plates, and 20 uL of Proteasome-Glo™ Reagent was added to each well for 10 minutes. Plates were then read on an Analyst HT plate reader using luminescence mode. The percent inhibition of activity was plotted as a function of log compound concentration. The IC50 was then calculated for each compound using Prism software from GraphPad.

Assay [13] concerns the target T1, PBMC/LMP7. The assay can be described thus: Durability of binding in cells, wash-out assay, PBMC/LMP7. Type of assay: cell-based. As to conditions: 2 h incubation, inhibitor washout. Here is the method: as §2
For assay [14], the target named is T2, HT29/B5c. The assay can be described thus: Durability of binding in cells, wash-out assay, HT29/B5c. Type of assay: cell-based. As to conditions: 2 h incubation, inhibitor washout. The procedure:
as §2

Assay [15] has as its system multiple myeloma cell lines and primary patient tumor cells. As to conditions: including those resistant to conventional and novel prior therapies; cited from earlier work.

As to `CC(C)C=C(C#N)C(=O)NCCCC[C@H](NCC(F)(F)F)C(=O)N[C@@H](Cc1ccccc1)B(O)O` [Example 13, ((R)-1-((S)-6-(2-cyano-4-methylpent-2-enamido)-2-((2,2,2-trifluoroethyl)amino)hexanamido)-2-phenylethyl)boronic acid], the IC50 was greater than 5000 nM in assay [1]; 67.1 nM in [2]; 50 nM at PBMC/LMP7 [3]; 292 nM in assay [4]; 242 nM against HT29/B5c [5].
The matching figures for `C=CC(=O)N(C)c1cccc(C[C@H](NC(=O)c2cc(Cl)ccc2Cl)C(=O)N[C@@H](Cc2ccccc2)B(O)O)c1` [Example 15, ((R)-1-((S)-2-(2,5-dichlorobenzamido)-3-(3-(N-methylacrylamido)phenyl)propanamido)-2-phenylethyl)boronic acid]: 2.7 nM, 4.3 nM, 35 nM, 5 nM and 141 nM.
With `CC(C)C=C(C#N)C(=O)N1CCC(CCCC(=O)N[C@@H](Cc2ccccc2)B(O)O)CC1` [Example 29, (R)-(1-(4-(1-(2-cyano-4-methylpent-2-enoyl)piperidin-4-yl)butanamido)-2-phenylethyl)boronic acid], the half-inhibitory concentration (IC50) was greater than 5000 nM in assay [1]; 319 nM in assay [2]; 307 nM at PBMC/LMP7 [3]; 964 nM in [4]; 3590 nM against HT29/B5c [5].
With `COc1ccc(C[C@H](NC(=O)[C@H](C)NC(=O)CN2CCOCC2)C(=O)N[C@@H](Cc2ccccc2)C(=O)[C@@]2(C)CO2)cc1` [PR-957], the Th1/17 differentiation result in the assay on Th1/17 differentiation [6] and in the assay with Th1/17 differentiation [7] was “potently block” each time. In assay [8], the efficacy entry was “efficacious”. Further, in [9], the “inflammation and tissue destruction” value is “reduced inflammation and tissue destruction”. Besides, in [10], the disease activity result is reported as “significantly inhibit disease activity”. Further, in the assay with MRL/lpr lupus model, the disease progression entry is “prevented disease progression”. Also, the “plasma cell numbers and anti-dsDNA IgG levels” value in the assay with MRL/lpr lupus model was “reduced plasma cell numbers and anti-dsDNA IgG levels”.
As to `CC(C)C=C(C#N)C(=O)N1CCC[C@@H]1COC[C@H](NC(=O)c1cc(Cl)ccc1Cl)C(=O)N[C@@H](Cc1ccccc1)B(O)O` [Example 14, ((R)-1-((S)-3-(((R)-1-(2-cyano-4-methylpent-2-enoyl)pyrrolidin-2-yl)methoxy)-2-(2,5-dichlorobenzamido)propanamido)-2-phenylethyl)boronic acid], the IC50 against PBMC/LMP2 [11] is 274 nM; on PBMC/LMP2 [12] (30 min in culture), 27 nM; on PBMC/LMP2 [12] (4 hr in culture), 505 nM; at PBMC/LMP2 [12] (18 hr in culture), 2960 nM; in assay [1], 138 nM; on PBMC/LMP7 [13] (30 min in culture), 50 nM. Besides, the IC50 on PBMC/LMP7 [13] (4 hr in culture) turned out to be 93 nM; at PBMC/LMP7 [13] (18 hr in culture), 146 nM; in [2], 1.7 nM; at PBMC/LMP7 [3], 31 nM; in [4] it was 2.4 nM; at HT29/B5c [5], 60 nM. The IC50 turned out to be 82 nM at HT29/B5c [14] (30 min in culture), 87 nM on HT29/B5c [14] (4 hr in culture) and 1850 nM at HT29/B5c [14] (18 hr in culture).
As to `CC(C)C=C(C#N)C(=O)N1CCC[C@@H]1CNC(=O)N[C@@H](Cc1ccccc1)B(O)O` [Example 32, ((R)-1-(3-(((R)-1-(2-cyano-4-methylpent-2-enoyl)pyrrolidin-2-yl)methyl)ureido)-2-phenylethyl)boronic acid], the IC50 in [1] was greater than 5000 nM; in assay [2], 37.2 nM; against PBMC/LMP7 [3], 110 nM; in assay [4], greater than 5000 nM.
`CC(C)C=C(C#N)C(=O)NCCCC[C@H](NC(=O)c1cc(Cl)ccc1Cl)C(=O)N[C@@H](Cc1ccccc1)B(O)O` [Example 8, ((R)-1-((S)-6-(2-cyano-4-methylpent-2-enamido)-2-(2,5-dichlorobenzamido)hexanamido)-2-phenylethyl)boronic acid]: the IC50 in assay [1] is 79 nM; in [2], 2.4 nM; on PBMC/LMP7 [3], 39 nM; in assay [4], 4.4 nM.
On to `CC1=C(C(=O)N[C@H](C)C(=O)N[C@@H](Cc2c[nH]c3ccccc23)C(=O)N[C@@H](Cc2ccccc2)C(=O)[C@@]2(C)CO2)Cc2ccccc21` [PR-924], for which, in [15], the “growth of multiple myeloma cell lines and primary patient tumor cells” value is given as “inhibit growth”.
Regarding `CC(=O)N[C@@H](CCCCNC(=O)C(C#N)=CC(C)C)C(=O)N[C@@H](Cc1ccccc1)B(O)O` [Example 11, ((R)-1-((S)-2-acetamido-6-(2-cyano-4-methylpent-2-enamido)hexanamido)-2-phenylethyl)boronic acid], the IC50 in [2] is 2.6 nM; against PBMC/LMP7 [3], 390 nM; in [4] it was 4 nM.
In the case of `CC(C)C=C(C#N)C(=O)N(C)c1cccc(C[C@H](NC(=O)c2cc(Cl)ccc2Cl)C(=O)N[C@@H](Cc2ccccc2)B(O)O)c1` [Example 20, ((R)-1-((S)-3-(3-(2-cyano-N,4-dimethylpent-2-enamido)phenyl)-2-(2,5-dichlorobenzamido)propanamido)-2-phenylethyl)boronic acid], the 50% inhibitory concentration (IC50) against PBMC/LMP2 [11] amounted to 208 nM; in [1] it was 483 nM; in assay [2], 2.4 nM; against PBMC/LMP7 [3] it was 34 nM; in assay [4] it was 8.1 nM.
Take `CC(C)C=C(C#N)C(=O)N(C)c1cccc(C[C@H](NC(=O)c2cnccn2)C(=O)N[C@@H](Cc2ccccc2)B(O)O)c1` [Example 21, ((R)-1-((S)-3-(3-(2-cyano-N,4-dimethylpent-2-enamido)phenyl)-2-(pyrazine-2-carboxamido)propanamido)-2-phenylethyl)boronic acid]: the IC50 turned out to be 2.5 nM in assay [2], 73 nM on PBMC/LMP7 [3] and 21.1 nM in [4].
For the compound `CC(C)C=C(C#N)C(=O)N1CCCC[C@@H]1COC[C@H](NCC(F)(F)F)C(=O)N[C@@H](Cc1ccccc1)B(O)O` [Example 25, ((R)-1-((S)-3-(((R)-1-(2-cyano-4-methylpent-2-enoyl)piperidin-2-yl)methoxy)-2-((2,2,2-trifluoroethyl)amino)propanamido)-2-phenylethyl)boronic acid], the IC50 is 701 nM in assay [1], 10 nM in [2], 28 nM against PBMC/LMP7 [3] and 411 nM in assay [4].
On to `C=CC(=O)N1CC[C@H](OC(=O)N[C@@H](Cc2ccccc2)B(O)O)C1` [Example 88, ((R)-1-(((((S)-1-acryloylpyrrolidin-3-yl)oxy)carbonyl)amino)-2-phenylethyl)boronic acid], for which the IC50 is 1860 nM in assay [1], 113 nM in assay [2] and 1610 nM in assay [4].
`N#CC(=CC1CC1)C(=O)N1CCC[C@@H]1COC[C@H](NCC(F)(F)F)C(=O)N[C@@H](Cc1ccccc1)B(O)O` [Example 22, (R)-1-((S)-3-(((R)-1-(2-cyano-3-cyclopropylacryloyl)pyrrolidin-2-yl)methoxy)-2-(2,2,2-trifluoroethylamino)propanamido)-2-phenylethylboronic acid]: the IC50 was determined as 22 nM in assay [2], 39 nM on PBMC/LMP7 [3] and 308 nM in assay [4].

Usually IC50 stands for the concentration at which inhibition is half-maximal.
